Source: patent US7662644B2, “Labeled peptides, proteins and antibodies and processes and intermediates useful for their preparation” (priority 2000, dated 2010)

B1: mero-CBD: cdc42 binding domain of WASP conjugated to the merocyanine dye shown in FIG. 11 (conjugate)
chain: DIQNPDITSSRYRGLPAPGPSPADKKRSGKKKISKADIGAPSGFKHVSHVGWDPQNGFDVNNLDPDLRSLCSRAGISEAQLTDAETSKLIYDFIEDQGGLEAVRQEMRRQEPLPPPPPPSR
modifications: left off: small tags and cut ends

Legend:
[1] = Spectral data for selected merocyanine dyes (absorbance and fluorescence spectra); assay type: physicochemical; parameters: Absorption Maximum / Emission Maximum: unit not given here; settings: in n-butanol
Procedure: Absorbance spectra were recorded on Hewlett-Packard HP8452 diode array spectrophotometer and fluorescence spectra were recorded on SPEX Fluorolog 2 spectrometer.

GFP-Rac1 = target: T1, GFP-Rac1 (Homo sapiens, UniProt P63000); assay: In vitro FRET titration of Alexa-PBD with GFP-Rac1; assay type: binding; settings: at saturating Alexa-PBD; read-out: apparent GTPγS dissociation constant
T1 construct: 6His; made in house; host or cells: E. coli BL21DE3 (stated for PBD; 'similar procedure' for GFP-Rac1)
Procedure: FRET between Alexa-PBD and GFP-Rac1 was efficient and dependent on GTP-Rac 1 binding. […] Purified GFP-Rac1 (200 nM) was bound to varying concentrations of […] or GDP at low magnesium by 30 min incubation at 30° C. as described previously (U. G. Knaus et al., J. Biol. Chem. 267, 23575-23582 (1992)), using the following nucleotide equilibration buffer: 50 mM Tris HCl (pH 7.6), 50 mM NaCl, 5 mM MgCl2, 10 mM EDTA, and 1 mM DTT. […] Spectra were corrected for dilution upon Alexa-PBD addition. Alexa-PBD concentrations were either varied as shown, or maintained at 1 micromolar when saturating Alexa-PBD was required. The spectra shown were corrected for direct excitation of the Alexa fluorophore by acquiring spectra of Alexa-PBD alone at equivalent concentrations, and subtracting these from spectra shown in FIG. 7. Kd were determined by fitting to the equation: Y=A*X/(Kd+X). In the FIG. 7, panel A inset, only points actually used in the curve fitting are shown. Higher, saturating concentrations of AlexaPBD were not used because errors from subtraction of direct Alexa excitation became larger. […] The apparent GTPγS dissociation constant was determined at saturating Alexa-PBD by fitting the experimental data to the Michaelis equation (FIG. 7b). […]

Rac = target: T2, Rac (Homo sapiens, UniProt P63000); settings: literature value; read-out: previously reported GTPγS dissociation constant; cited from earlier work
T2 construct: ECFP or EYFP (fusion partner)

cdc42 = target: T3, cdc42 (Homo sapiens, UniProt P60953); assay: Fluorescence of mero-CBD on binding cdc42; settings: for increase of fluorescence on binding activated cdc42 (cdc42-GTPγS): saturating cdc42-GTPγS
T3 construct: 6His; made in house; host or cells: E. coli BL21DE3 (stated for CBD; 'analogous procedures' for cdc42)
T3 sequence (P60953 whole entry, species assumed): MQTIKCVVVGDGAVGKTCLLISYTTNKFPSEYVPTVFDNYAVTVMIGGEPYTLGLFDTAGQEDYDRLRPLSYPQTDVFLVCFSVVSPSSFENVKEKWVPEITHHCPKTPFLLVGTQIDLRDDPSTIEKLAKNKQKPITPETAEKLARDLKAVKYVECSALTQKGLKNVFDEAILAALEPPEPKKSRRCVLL
Procedure: (§1) Analyses of the solvatochromic activation indicator—A solution of mero-CBD (300 nM) in assay buffer was mixed 1:1 (v/v) with solutions of cdc42 (concentration as indicated), pre-equilibrated with 10 mM GDP or GTPγS as described in Knaus, U. G., Heyworth, P. G., Kinsella, B. T., Cumutte, J. T., and Bokoch, G. M. (1992) J. Biol. Chem. 267, 23575-23582. Emission wavelength of 630 nm and excitation wavelength of 600 nm were used to acquire excitation and emission spectra, respectively. For nucleotide dependence, cdc42 (500 nM) was pre-incubated with varying concentrations of GTPγS (1 to 500 nM). Rac1 and RhoA GTPases were pre-equilibrated with GTPγS in the same manner.
(§2) Fluorescence increase as a measure of CBD-cdc42 interaction—The functionality and specificity of mero-CBD was characterized by measuring fluorescence in the presence of saturating amounts of cdc42-GDP or cdc42-GTPγS. […] Negligible increase (<5%) was also observed in the presence of activated Rac1. No effect on the mero-CBD fluorescence was observed when RhoA-GTPγS was present. Furthermore, even in the presence of excess of activated Rac1 and RhoA, GDP- and GTPγS-bound forms of cdc42 were easily distinguished by CBD-A4C fluorescence (data not shown).

Rac1 = target: T4, Rac1 (Homo sapiens, UniProt P63000); assay: Fluorescence of mero-CBD in presence of activated Rac1; assay type: binding; settings: Rac1 pre-equilibrated with GTPγS
T4 construct: 6His; made in house; host or cells: E. coli BL21DE3 (by 'analogous procedures')
Procedure: as §1, §2

RhoA = target: T5, RhoA (Homo sapiens, UniProt P61586); assay: Fluorescence of mero-CBD in presence of RhoA-GTPγS; assay type: binding; settings: RhoA-GTPγS present
T5 construct: 6His; made in house; host or cells: E. coli BL21DE3 (by 'analogous procedures')
T5 sequence (P61586 whole entry, species assumed): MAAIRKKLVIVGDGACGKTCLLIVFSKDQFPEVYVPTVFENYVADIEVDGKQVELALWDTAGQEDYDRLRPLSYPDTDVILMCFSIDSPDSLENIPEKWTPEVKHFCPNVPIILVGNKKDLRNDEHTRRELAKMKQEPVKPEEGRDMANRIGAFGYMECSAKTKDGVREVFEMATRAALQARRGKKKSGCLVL
Procedure: as §1, §2

[2] = Storage of labeled CBD aliquots; assay type: physicochemical; settings: aliquots 15 to 50 μM stored at −80° C. for 6 months
Procedure: Conjugation of CBD with fluorescent dyes—Dialyzed CBD samples (100-150 μM) were gently inverted with 6 to 7-fold molar excess of the reactive dye at 25° C. for 3 to 4 hours. The reaction was stopped by addition of 10 mM dithiothreitol (DTT), and the mixture was incubated for 15 min. Unreacted dye was separated from the labeled protein using […] (Pharmacia) gel filtration column equilibrated and developed with 25 mM Na2HPO4 (pH 7.5). Purity of the eluting fractions was analyzed by running an aliquot on an SDS gel and visualizing the fluorescence. Only the fractions containing minimal amounts of free dye were used in the subsequent experiments. Dye-to-protein ratio was determined by measuring CBD concentration (ε^280=8,250 M^−1), and A4C concentration at 617 nm (ε=70,000 M^−1 in dimethylsulfoxide) or Alexa546 at 554 nm (ε=104,000 M^−1 in 50 mM potassium phosphate, pH 7.0). Concentrations of CBD were independently confirmed by Coomassie Plus assay (Pierce) calibrated with bovine serum albumin as a standard. Dye-to-protein ratios thus obtained varied between 0.8 and 1.2, 1.7 and 2.1 for the single-dye and dual-dye conjugates, respectively. Aliquots of the labeled CBD (15 to 50 μM) were stored at −80° C. […] In this example, CBD-conjugates were made with the dye shown in FIG. 11, and are referred to as mero-CBD (for merocyanines dye conjugated to CBD).

Molecule	Absorption Maximum [1]	Emission Maximum [1]	Extinction coefficient (*10^−3) [1]	Quantum Yield [1]	also measured
CC1(C)/C(=C/C=C/C=C2/C(=O)c3ccccc3S2(=O)=O)N(CCCS(=O)(=O)[O-])c2ccccc21.[Na+] [Compound 3]	586	618	120	0.17	
CC1(C)/C(=C/C=C/C=C2/C(=O)c3ccccc3C2=C(C#N)C#N)N(CCCS(=O)(=O)[O-])c2ccccc21.[Na+] [Compound 4]	667	693	80	0.10	
Nc1nc2c(ncn2[C@@H]2O[C@H](COP(=O)(O)OP(=O)(O)OP(O)(O)=S)[C@@H](O)[C@H]2O)c(=O)[nH]1 [GTPγS]					Kd (GFP-Rac1): 47 ± 9 nM; Kd (Rac): 50 nM
B1					increase of fluorescence with cdc42-GDP (cdc42; saturating cdc42-GDP): but not cdc42-GDP; increase of fluorescence on binding activated cdc42 (cdc42-GTPγS) (cdc42): Approximately 3.5 fold; increase of fluorescence on binding activated cdc42 (cdc42-GTPγS) (cdc42; listed as CBD biosensor): up to 3.5 fold; increase of fluorescence in the presence of activated Rac1 (Rac1): < 5%; effect of RhoA-GTPγS on fluorescence (RhoA): No effect; loss of binding ability on storage [2]: No significant loss of binding ability
